Test system: total specific airway resistance (sRaw)
Test: Phase I, healthy male subjects, 7 days inhalation: total specific airway resistance sRaw by bodyplethysmography (C-4.1)
Assay type: in vivo, human
Procedure: Healthy White male subjects, aged 18 to 45 years and with a body mass index (BMI) above/equal 18.5 and below/equal 29.9 kg/m2 were treated in a clinical pharmacological phase I study on seven days with inhaled once daily doses of 480 μg or 1000 μg or 2000 μg (2 capsules of 1000 μg) (nominal dose) of dry powder formulations of example 2 or Placebo. The subjects inhaled the drug powder from capsules (see under D-1, e.g. tables 22 and 23) inserted into a handheld inhalation device by one deep inhalative breath. The dry powder formulation of the drug is dispersed into the airstream and fine particles are transported into the deep parts of the lung where it is intended to cause a vasodilation of the blood vessels in PH patients for a substantial reduction of increased blood pressure in the central pulmonary blood vessels in PAH patients or other subtypes of PH. This effect cannot be shown in subjects with healthy lungs. In addition inhaled drug causes a dilation of the bronchial airways and thus also improves disease states of lung diseases in PH patients with pathological bronchoconstriction. This effect was measured via bodyplethysmography as reduction of Specific Airway Resistance in healthy subjects. After the deep inhalative breath the subjects hold breath for 2 seconds, so that the dry powder drug condenses from the airstream onto the surface of the deeper lung areas where it is deposited close to its site of intended pharmacological action. The drug dissolutes over the day and equilibrates the lung via lining fluid.

O=C(O)c1ccc(CCN(CCc2ccccc2OCc2ccc(-c3ccc(C(F)(F)F)cc3)cc2Cl)[C@H]2CCCc3nc(C(=O)O)ccc32)cc1 [example 2, (5S)-{[2-(4-Carboxyphenyl)ethyl][2-(2-{[3-chloro-4′-(trifluoromethyl)biphenyl-4-yl]methoxy}phenyl)-ethyl]amino}-5,6,7,8-tetrahydroquinoline-2-carboxylic acid]
total specific airway resistance, mean ± SD (480 μg, 0 D 00 H 00 M): 1.078 ± 0.375 kPa/sec
total specific airway resistance, mean ± SD (480 μg, 0 D 02 H 00 M): 0.839 ± 0.182 kPa/sec
total specific airway resistance, mean ± SD (480 μg, 0 D 06 H 00 M): 0.800 ± 0.187 kPa/sec
total specific airway resistance, mean ± SD (480 μg, 2 D 02 H 00 M): 0.883 ± 0.310 kPa/sec
total specific airway resistance, mean ± SD (480 μg, 4 D 02 H 00 M): 0.807 ± 0.200 kPa/sec
total specific airway resistance, mean ± SD (480 μg, 6 D 04 H 00 M): 0.798 ± 0.193 kPa/sec
total specific airway resistance, mean ± SD (480 μg, 7 D 00 H 00 M): 0.823 ± 0.274 kPa/sec
total specific airway resistance, mean ± SD (480 μg, 7 D 02 H 00 M): 0.777 ± 0.282 kPa/sec
total specific airway resistance, mean ± SD (480 μg, 7 D 06 H 00 M): 0.803 ± 0.280 kPa/sec
total specific airway resistance, mean ± SD (480 μg, SCREENING): 0.844 ± 0.327 kPa/sec
total specific airway resistance, mean ± SD (480 μg, SCREENING 2): 0.832 ± 0.280 kPa/sec
total specific airway resistance, mean ± SD (480 μg, −0 D 18 H 00 M (pretreatment day)): 0.921 ± 0.305 kPa/sec
total specific airway resistance, mean ± SD (480 μg, −0 D 22 H 00 M (pretreatment day)): 0.928 ± 0.392 kPa/sec
total specific airway resistance, mean ± SD (480 μg, −1 D 00 H 00 M (pretreatment day)): 0.939 ± 0.344 kPa/sec
total specific airway resistance, mean ± SD (1000 μg, 0 D 00 H 00 M): 0.967 ± 0.233 kPa/sec
total specific airway resistance, mean ± SD (1000 μg, 0 D 02 H 00 M): 0.859 ± 0.143 kPa/sec
total specific airway resistance, mean ± SD (1000 μg, 0 D 06 H 00 M): 0.824 ± 0.180 kPa/sec
total specific airway resistance, mean ± SD (1000 μg, 2 D 02 H 00 M): 0.797 ± 0.141 kPa/sec
total specific airway resistance, mean ± SD (1000 μg, 4 D 02 H 00 M): 0.853 ± 0.172 kPa/sec
total specific airway resistance, mean ± SD (1000 μg, 6 D 04 H 00 M): 0.787 ± 0.168 kPa/sec
total specific airway resistance, mean ± SD (1000 μg, 7 D 00 H 00 M): 0.917 ± 0.227 kPa/sec
total specific airway resistance, mean ± SD (1000 μg, 7 D 02 H 00 M): 0.764 ± 0.140 kPa/sec
total specific airway resistance, mean ± SD (1000 μg, 7 D 06 H 00 M): 0.787 ± 0.188 kPa/sec
total specific airway resistance, mean ± SD (1000 μg, SCREENING): 0.867 ± 0.376 kPa/sec
total specific airway resistance, mean ± SD (1000 μg, SCREENING 2): 1.009 ± 0.340 kPa/sec
total specific airway resistance, mean ± SD (1000 μg, −0 D 18 H 00 M (pretreatment day)): 0.901 ± 0.187 kPa/sec
total specific airway resistance, mean ± SD (1000 μg, −0 D 22 H 00 M (pretreatment day)): 0.903 ± 0.255 kPa/sec
total specific airway resistance, mean ± SD (1000 μg, −1 D 00 H 00 M (pretreatment day)): 0.996 ± 0.194 kPa/sec
total specific airway resistance, mean ± SD (2000 μg, 0 D 00 H 00 M): 0.947 ± 0.143 kPa/sec
total specific airway resistance, mean ± SD (2000 μg, 0 D 02 H 00 M): 0.677 ± 0.139 kPa/sec
total specific airway resistance, mean ± SD (2000 μg, 0 D 06 H 00 M): 0.651 ± 0.149 kPa/sec
total specific airway resistance, mean ± SD (2000 μg, 2 D 02 H 00 M): 0.748 ± 0.155 kPa/sec
total specific airway resistance, mean ± SD (2000 μg, 4 D 02 H 00 M): 0.709 ± 0.178 kPa/sec
total specific airway resistance, mean ± SD (2000 μg, 6 D 04 H 00 M): 0.722 ± 0.168 kPa/sec
total specific airway resistance, mean ± SD (2000 μg, 7 D 00 H 00 M): 0.844 ± 0.097 kPa/sec
total specific airway resistance, mean ± SD (2000 μg, 7 D 02 H 00 M): 0.716 ± 0.089 kPa/sec
total specific airway resistance, mean ± SD (2000 μg, 7 D 06 H 00 M): 0.730 ± 0.151 kPa/sec
total specific airway resistance, mean ± SD (2000 μg, SCREENING): 0.899 ± 0.150 kPa/sec
total specific airway resistance, mean ± SD (2000 μg, SCREENING 2): 0.957 ± 0.140 kPa/sec
total specific airway resistance, mean ± SD (2000 μg, −0 D 18 H 00 M (pretreatment day)): 0.943 ± 0.245 kPa/sec
total specific airway resistance, mean ± SD (2000 μg, −0 D 22 H 00 M (pretreatment day)): 0.933 ± 0.165 kPa/sec
total specific airway resistance, mean ± SD (2000 μg, −1 D 00 H 00 M (pretreatment day)): 0.962 ± 0.266 kPa/sec
decrease of total specific airway resistance sRaw compared to baseline (6 h after first dosing, all dose groups): −0.142 to −0.296 kPa/sec

Reference: patent US12138256B2, “Treatment of cardiopulmonary disorders” (Bayer Aktiengesellschaft, priority 2021, dated 2024)
